The results in this text go back to ChEMBL document CHEMBL5291721, “A preclinical secondary pharmacology resource illuminates target-adverse drug reaction associations of marketed drugs” (Nat Commun, 2023).

The target of assay [1] is Beta-1 adrenergic receptor (Homo sapiens, UniProt P08588). In kind it is functional.
Assay [2] deals with T1, 5-hydroxytryptamine receptor 2C (Homo sapiens, UniProt P28335).
T1 sequence (P28335 whole entry): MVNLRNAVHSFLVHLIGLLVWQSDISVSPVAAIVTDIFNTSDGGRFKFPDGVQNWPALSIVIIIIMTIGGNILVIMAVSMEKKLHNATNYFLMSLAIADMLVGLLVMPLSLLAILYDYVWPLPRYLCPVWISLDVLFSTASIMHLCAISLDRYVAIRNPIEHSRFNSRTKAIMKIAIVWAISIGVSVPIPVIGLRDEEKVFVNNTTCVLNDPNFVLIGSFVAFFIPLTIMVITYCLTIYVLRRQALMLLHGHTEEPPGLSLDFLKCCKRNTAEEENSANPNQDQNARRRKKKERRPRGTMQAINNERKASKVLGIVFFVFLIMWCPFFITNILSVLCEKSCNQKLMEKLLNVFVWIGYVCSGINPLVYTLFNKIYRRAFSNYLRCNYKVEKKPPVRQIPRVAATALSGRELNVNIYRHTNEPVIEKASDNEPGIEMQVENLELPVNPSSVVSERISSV

Assay [3] concerns the target Voltage-dependent L-type calcium channel subunit alpha-1C (Rattus norvegicus, UniProt P22002). In kind it is functional.
Assay [4] addresses Gamma-aminobutyric acid receptor subunit alpha-1 (Rattus norvegicus, UniProt P62813). In kind it is functional.
For assay [5], the target named is T2, Alpha-1A adrenergic receptor (Homo sapiens, UniProt P35348).
T2 sequence (P35348 whole entry): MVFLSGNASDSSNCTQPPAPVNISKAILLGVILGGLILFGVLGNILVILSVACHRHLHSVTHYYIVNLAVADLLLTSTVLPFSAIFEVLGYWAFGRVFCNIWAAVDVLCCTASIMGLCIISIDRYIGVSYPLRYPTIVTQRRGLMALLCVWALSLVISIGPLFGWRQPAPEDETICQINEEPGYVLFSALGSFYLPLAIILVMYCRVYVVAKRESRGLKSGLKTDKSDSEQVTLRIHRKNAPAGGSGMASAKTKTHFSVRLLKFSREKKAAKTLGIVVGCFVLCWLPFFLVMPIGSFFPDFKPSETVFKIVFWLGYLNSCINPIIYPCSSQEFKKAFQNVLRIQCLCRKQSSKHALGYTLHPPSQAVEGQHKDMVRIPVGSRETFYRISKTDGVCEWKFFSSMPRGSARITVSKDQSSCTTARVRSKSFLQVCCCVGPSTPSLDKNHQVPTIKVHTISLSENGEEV
In kind it is functional, cell-based.

The target in assay [6] is T3, Alpha-2C adrenergic receptor (Homo sapiens, UniProt P18825).
T3 sequence (P18825 whole entry): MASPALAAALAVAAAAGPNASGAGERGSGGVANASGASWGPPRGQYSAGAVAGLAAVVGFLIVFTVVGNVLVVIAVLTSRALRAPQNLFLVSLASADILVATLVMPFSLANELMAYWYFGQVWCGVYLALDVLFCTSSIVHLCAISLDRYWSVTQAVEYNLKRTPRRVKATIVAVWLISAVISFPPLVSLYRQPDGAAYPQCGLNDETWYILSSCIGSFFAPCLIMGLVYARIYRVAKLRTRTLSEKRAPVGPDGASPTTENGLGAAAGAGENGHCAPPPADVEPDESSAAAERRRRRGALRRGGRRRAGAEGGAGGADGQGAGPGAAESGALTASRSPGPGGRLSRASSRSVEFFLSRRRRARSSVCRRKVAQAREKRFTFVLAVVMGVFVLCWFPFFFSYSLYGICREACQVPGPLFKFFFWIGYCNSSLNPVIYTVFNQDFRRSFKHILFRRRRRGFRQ
In kind it is functional.

In the next assay the target is T4, B2 bradykinin receptor (Homo sapiens, UniProt P30411).
T4 sequence (P30411 whole entry): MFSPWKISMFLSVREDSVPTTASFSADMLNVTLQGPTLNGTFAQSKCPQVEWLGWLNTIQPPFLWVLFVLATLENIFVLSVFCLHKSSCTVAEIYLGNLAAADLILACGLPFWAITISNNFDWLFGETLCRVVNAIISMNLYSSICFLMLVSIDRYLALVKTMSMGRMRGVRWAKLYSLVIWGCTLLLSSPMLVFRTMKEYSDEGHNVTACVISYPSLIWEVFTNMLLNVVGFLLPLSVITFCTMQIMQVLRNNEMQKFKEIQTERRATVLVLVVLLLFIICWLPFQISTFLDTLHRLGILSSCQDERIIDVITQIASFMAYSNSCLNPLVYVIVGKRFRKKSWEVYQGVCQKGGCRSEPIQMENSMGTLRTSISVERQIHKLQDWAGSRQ

Assay [7] has as its target T2, Alpha-1A adrenergic receptor. In kind it is functional, cell-based. The source holds these as a separate data set.
In another assay the target is T5, Adenosine receptor A3 (Homo sapiens, UniProt P0DMS8).
T5 sequence (P0DMS8 whole entry): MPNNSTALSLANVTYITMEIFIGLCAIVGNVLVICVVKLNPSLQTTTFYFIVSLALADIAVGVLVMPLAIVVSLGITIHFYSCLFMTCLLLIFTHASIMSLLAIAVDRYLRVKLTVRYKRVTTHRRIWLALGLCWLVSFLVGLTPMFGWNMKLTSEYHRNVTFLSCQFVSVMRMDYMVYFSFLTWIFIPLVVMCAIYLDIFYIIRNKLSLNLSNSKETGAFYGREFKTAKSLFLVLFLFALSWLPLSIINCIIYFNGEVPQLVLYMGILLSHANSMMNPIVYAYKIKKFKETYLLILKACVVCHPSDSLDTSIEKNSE

A further assay deals with Cannabinoid receptor 1 (Homo sapiens, UniProt P21554). In kind it is functional, cell-based.
Chain of Cannabinoid receptor 1 (P21554 whole entry): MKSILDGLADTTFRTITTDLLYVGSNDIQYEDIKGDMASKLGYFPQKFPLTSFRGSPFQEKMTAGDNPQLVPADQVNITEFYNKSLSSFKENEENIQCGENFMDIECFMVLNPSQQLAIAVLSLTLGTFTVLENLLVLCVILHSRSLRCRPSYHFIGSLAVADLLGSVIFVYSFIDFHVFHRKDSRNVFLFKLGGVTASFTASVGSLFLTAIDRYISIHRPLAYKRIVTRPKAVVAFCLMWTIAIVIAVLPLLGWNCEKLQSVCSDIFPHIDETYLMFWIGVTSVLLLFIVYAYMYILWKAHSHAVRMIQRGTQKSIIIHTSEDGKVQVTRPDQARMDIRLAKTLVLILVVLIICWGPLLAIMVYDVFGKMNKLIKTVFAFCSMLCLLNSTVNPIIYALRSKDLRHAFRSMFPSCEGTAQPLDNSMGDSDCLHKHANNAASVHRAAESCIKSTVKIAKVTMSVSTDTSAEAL
Another assay concerns the target T6, Endothelin-1 receptor (Homo sapiens, UniProt P25101).
T6 sequence (P25101 whole entry): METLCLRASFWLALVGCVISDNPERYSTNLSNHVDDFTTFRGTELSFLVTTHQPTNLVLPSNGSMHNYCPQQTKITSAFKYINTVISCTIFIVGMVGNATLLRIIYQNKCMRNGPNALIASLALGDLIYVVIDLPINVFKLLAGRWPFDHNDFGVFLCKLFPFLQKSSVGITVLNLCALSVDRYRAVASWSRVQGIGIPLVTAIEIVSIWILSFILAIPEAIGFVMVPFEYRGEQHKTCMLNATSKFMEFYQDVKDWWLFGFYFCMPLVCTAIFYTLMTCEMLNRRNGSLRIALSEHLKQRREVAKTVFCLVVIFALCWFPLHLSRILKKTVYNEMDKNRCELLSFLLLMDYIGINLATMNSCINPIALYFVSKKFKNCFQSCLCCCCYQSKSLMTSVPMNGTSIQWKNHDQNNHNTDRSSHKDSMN
Note: assay procedure not described here.

Chain of Gamma-aminobutyric acid receptor subunit alpha-1 (P62813 whole entry): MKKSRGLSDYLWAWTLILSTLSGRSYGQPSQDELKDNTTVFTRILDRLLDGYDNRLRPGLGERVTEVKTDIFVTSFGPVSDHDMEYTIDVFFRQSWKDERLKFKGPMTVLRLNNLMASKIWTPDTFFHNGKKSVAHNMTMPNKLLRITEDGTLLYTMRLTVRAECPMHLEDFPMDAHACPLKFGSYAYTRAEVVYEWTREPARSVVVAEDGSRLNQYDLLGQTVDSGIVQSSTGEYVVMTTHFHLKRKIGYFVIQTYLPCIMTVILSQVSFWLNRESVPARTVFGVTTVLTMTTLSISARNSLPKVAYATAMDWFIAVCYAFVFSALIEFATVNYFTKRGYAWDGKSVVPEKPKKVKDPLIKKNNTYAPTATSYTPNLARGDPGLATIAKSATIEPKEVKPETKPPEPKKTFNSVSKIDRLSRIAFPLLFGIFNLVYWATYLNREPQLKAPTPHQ
Chain of Voltage-dependent L-type calcium channel subunit alpha-1C (P22002 whole entry): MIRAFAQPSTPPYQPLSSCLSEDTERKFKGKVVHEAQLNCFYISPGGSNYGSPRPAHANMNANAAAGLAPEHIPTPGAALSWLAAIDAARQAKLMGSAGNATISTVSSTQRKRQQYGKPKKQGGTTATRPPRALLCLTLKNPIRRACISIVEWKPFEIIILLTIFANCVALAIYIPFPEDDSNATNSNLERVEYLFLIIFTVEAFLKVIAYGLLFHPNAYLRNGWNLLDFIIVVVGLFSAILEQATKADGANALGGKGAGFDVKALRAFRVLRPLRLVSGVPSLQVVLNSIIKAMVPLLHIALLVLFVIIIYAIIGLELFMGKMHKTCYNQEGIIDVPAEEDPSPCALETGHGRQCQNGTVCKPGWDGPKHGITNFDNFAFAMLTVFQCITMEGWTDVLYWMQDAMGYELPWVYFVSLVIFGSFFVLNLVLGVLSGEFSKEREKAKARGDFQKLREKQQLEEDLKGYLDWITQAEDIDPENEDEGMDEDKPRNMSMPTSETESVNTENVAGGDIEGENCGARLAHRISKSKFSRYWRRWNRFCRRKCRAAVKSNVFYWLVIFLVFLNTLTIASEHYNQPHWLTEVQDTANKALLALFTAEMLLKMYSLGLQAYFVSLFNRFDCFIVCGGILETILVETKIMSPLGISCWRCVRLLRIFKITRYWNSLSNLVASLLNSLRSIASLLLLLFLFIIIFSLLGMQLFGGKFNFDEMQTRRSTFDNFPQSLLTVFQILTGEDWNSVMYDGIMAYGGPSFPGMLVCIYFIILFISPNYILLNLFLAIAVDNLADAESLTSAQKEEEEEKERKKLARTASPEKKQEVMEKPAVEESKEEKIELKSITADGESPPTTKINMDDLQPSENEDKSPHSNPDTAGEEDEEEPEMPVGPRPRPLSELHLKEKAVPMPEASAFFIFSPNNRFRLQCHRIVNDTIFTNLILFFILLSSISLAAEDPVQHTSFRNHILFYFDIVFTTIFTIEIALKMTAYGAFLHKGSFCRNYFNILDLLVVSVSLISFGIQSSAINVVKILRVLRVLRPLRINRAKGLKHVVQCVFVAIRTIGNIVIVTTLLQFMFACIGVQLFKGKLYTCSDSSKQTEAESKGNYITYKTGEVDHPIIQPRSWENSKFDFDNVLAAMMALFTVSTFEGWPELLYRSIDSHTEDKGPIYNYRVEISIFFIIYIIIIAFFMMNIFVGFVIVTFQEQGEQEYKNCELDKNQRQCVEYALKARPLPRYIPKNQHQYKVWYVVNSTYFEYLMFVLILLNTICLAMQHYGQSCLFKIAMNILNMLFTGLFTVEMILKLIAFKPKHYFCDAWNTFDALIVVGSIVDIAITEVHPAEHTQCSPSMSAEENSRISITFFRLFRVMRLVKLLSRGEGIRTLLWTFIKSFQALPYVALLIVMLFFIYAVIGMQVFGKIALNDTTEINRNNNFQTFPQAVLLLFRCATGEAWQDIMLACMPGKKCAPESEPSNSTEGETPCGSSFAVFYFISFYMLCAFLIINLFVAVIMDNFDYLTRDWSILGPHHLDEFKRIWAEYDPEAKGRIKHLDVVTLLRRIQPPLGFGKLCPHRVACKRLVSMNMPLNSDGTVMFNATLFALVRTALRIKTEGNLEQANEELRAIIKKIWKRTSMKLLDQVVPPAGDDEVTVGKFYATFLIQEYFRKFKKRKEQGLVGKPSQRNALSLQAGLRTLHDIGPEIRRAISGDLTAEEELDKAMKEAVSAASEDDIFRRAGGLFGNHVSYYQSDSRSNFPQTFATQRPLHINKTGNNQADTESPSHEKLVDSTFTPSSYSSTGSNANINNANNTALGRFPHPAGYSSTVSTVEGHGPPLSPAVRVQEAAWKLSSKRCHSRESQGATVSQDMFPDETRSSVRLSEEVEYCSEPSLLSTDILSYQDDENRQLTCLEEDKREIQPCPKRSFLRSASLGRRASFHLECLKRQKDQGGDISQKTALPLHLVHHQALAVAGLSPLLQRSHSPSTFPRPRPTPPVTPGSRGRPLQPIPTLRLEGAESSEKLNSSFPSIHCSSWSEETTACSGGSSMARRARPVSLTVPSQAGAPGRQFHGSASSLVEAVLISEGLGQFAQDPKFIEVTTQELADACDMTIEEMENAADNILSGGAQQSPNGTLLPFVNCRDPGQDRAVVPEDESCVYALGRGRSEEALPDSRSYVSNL
Chain of Beta-1 adrenergic receptor (P08588 whole entry): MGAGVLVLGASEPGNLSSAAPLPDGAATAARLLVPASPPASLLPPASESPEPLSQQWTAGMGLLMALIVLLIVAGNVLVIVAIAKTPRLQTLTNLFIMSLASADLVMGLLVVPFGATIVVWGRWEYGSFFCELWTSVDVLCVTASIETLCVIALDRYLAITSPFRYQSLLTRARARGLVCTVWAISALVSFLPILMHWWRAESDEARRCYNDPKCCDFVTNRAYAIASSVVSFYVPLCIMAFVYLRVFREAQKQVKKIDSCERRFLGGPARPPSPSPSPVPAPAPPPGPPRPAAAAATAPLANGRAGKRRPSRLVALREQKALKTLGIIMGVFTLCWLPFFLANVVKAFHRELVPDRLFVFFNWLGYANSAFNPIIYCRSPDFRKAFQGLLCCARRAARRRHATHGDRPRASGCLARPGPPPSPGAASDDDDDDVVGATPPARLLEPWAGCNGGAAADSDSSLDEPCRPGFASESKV

Take `COc1ccc(CC2c3cc(OC)c(OC)cc3CC[N+]2(C)CCC(=O)OCCCCCOC(=O)CC[N+]2(C)CCc3cc(OC)c(OC)cc3C2Cc2ccc(OC)c(OC)c2)cc1OC` (stereo not given): the half-maximal activity concentration (AC50) in assay [1] is over 30 µM; in [2], 6.3 µM; in [3], over 30 µM; in [4] it was over 30 µM; in assay [5], 12 µM; in assay [6], 2.7 µM. Also, the half-maximal activity concentration (AC50) (at B2 bradykinin receptor; in assay [7]; on Adenosine receptor A3) was over 30 µM each time.
Turning to `COc1ccccc1Oc1c(NS(=O)(=O)c2ccc(C(C)(C)C)cc2)nc(-c2ncccn2)nc1OCCO` [BOSENTAN], the concentration at half-maximal activity (AC50) was over 30 µM at Cannabinoid receptor 1; over 30 µM in assay [1]; over 30 µM in assay [2]; over 10 µM in assay [3]; over 10 µM in [4]; over 30 µM in assay [5]. In addition, the AC50 in assay [6] is over 10 µM; at B2 bradykinin receptor it was over 30 µM; in assay [7], over 30 µM; at Adenosine receptor A3, over 30 µM.
Regarding `CC(C(=O)O)c1ccc2c(c1)[nH]c1ccc(Cl)cc12` (stereo not given) [CARPROFEN], the AC50 is over 30 µM in [1]; over 30 µM in assay [2]; over 10 µM on Endothelin-1 receptor; over 10 µM in assay [3]; over 10 µM in assay [4]; over 10 µM in assay [6]. Besides, the AC50 at B2 bradykinin receptor and on Adenosine receptor A3 was over 30 µM in each case.
Consider `O=C1CN(/N=C/c2ccc(-c3ccc([N+](=O)[O-])cc3)o2)C(O)=N1` [DANTROLENE], for which the AC50 in [1] is over 10 µM; in [2] it was over 30 µM; in assay [3], over 10 µM; in assay [4] it was over 10 µM; in [6] it was over 10 µM; at B2 bradykinin receptor it was over 10 µM. The molecule also yielded an AC50 at Adenosine receptor A3 of over 30 µM.
For the molecule `C[C@]12C=CC(=O)N[C@@H]1CC[C@@H]1[C@@H]2CC[C@]2(C)[C@@H](C(=O)Nc3cc(C(F)(F)F)ccc3C(F)(F)F)CC[C@@H]12` [DUTASTERIDE], the concentration at half-maximal activity (AC50) is over 30 µM at Cannabinoid receptor 1; over 10 µM in assay [1]; over 30 µM in assay [2]; over 10 µM in assay [3]; over 30 µM in assay [4]; over 30 µM in assay [5]. In addition, the half-maximal activity concentration (AC50) was over 10 µM in assay [6], over 10 µM at B2 bradykinin receptor, over 30 µM in assay [7] and over 10 µM on Adenosine receptor A3.
For the molecule `CN(C)CCC[C@@]1(c2ccc(F)cc2)OCc2cc(C#N)ccc21` [ESCITALOPRAM], the AC50 (on Cannabinoid receptor 1; in [1]; on Endothelin-1 receptor; in assay [4]; in assay [6]; at B2 bradykinin receptor) was over 30 µM throughout. At Adenosine receptor A3, this molecule yielded an AC50 of over 30 µM.
`C#C[C@]1(O)CC[C@H]2[C@@H]3CCC4=CC(=O)CC[C@@H]4[C@H]3C(=C)C[C@@]21CC` [ETONOGESTREL]: the AC50 at Cannabinoid receptor 1 was over 30 µM; in assay [2], over 10 µM; in assay [4] it was 27 µM; in [5], over 30 µM; in assay [6], over 30 µM; in assay [7] it was over 30 µM.
For `CN(CC1(C)CCCO1)S(=O)(=O)c1ccc(Cl)c(S(N)(=O)=O)c1` (stereo not given) [MEFRUSIDE], the concentration at half-maximal activity (AC50) (on Cannabinoid receptor 1; in assay [2]; in assay [4]; in assay [5]; in assay [6]; in assay [7]) was over 30 µM throughout.
`CN1C(C(=O)Nc2ccccn2)=C(O)c2ccccc2S1(=O)=O` [PIROXICAM]: the AC50 is over 10 µM in assay [1]; over 30 µM in [2]; over 10 µM in assay [3]; over 10 µM in [4]; over 30 µM in [6]; over 10 µM on B2 bradykinin receptor. The AC50 on Adenosine receptor A3 is over 10 µM.
In the case of `C=C[C@H]1C[N@@]2CC[C@H]1C[C@@H]2[C@@H](O)c1ccnc2ccc(OC)cc12` [QUINIDINE], the AC50 at Cannabinoid receptor 1 was over 30 µM; in assay [2] it was over 10 µM; in assay [6] it was 18 µM; on B2 bradykinin receptor it was over 30 µM; on Adenosine receptor A3 it was over 30 µM.
For `CC(N)C12CC3CC(CC(C3)C1)C2` (stereo not given) [RIMANTADINE], the AC50 in [1] was over 10 µM; in [2], over 30 µM; in assay [3] it was over 10 µM; in assay [4], over 10 µM; in assay [6], over 10 µM; on B2 bradykinin receptor, over 10 µM. Moreover, the AC50 on Adenosine receptor A3 was over 10 µM.
With `O=C1C(CC[S+]([O-])c2ccccc2)C(=O)N(c2ccccc2)N1c1ccccc1` (stereo not given) [SULFINPYRAZONE], the AC50 at Cannabinoid receptor 1 is over 30 µM; in assay [1], over 10 µM; in assay [2] it was over 30 µM; in assay [3], over 10 µM; in assay [4] it was over 10 µM; in assay [5] it was over 30 µM. Moreover, the concentration at half-maximal activity (AC50) in assay [6] was over 10 µM; on B2 bradykinin receptor, over 10 µM; in assay [7], over 30 µM; at Adenosine receptor A3, over 10 µM.
In the case of `COc1cc2nc(N3CCN(C(=O)C4CCCO4)CC3)nc(N)c2cc1OC` (stereo not given) [TERAZOSIN], the AC50 was over 30 µM on Cannabinoid receptor 1; over 10 µM in assay [1]; over 30 µM in [2]; over 30 µM on Endothelin-1 receptor; over 10 µM in [4]; over 30 µM on B2 bradykinin receptor. Besides, the AC50 at Adenosine receptor A3 was over 30 µM.
For the molecule `CC(C)(C)NCC(O)c1cc(O)cc(O)c1` (stereo not given) [TERBUTALINE], the AC50 at Endothelin-1 receptor, on B2 bradykinin receptor and at Adenosine receptor A3 was over 30 µM throughout.
For the molecule `CCCC(CCC)C(=O)O` [VALPROIC ACID], the half-maximal activity concentration (AC50) in assay [1] is over 10 µM; in assay [2], 11 µM; at Endothelin-1 receptor it was over 30 µM; in [3], over 10 µM; in assay [4], over 10 µM; in assay [6], over 10 µM. Also, the AC50 on B2 bradykinin receptor and on Adenosine receptor A3 was over 30 µM throughout.

A word on the AC50: it is the concentration at which the activity in the assay is half-maximal.
